Data on seven compounds can be found in patent US20030040531A1, “Remedies for reperfusion injury containing integrin alphanubeta 3 antagonist” (priority 2000, published 2003).

The structures appear in SMILES notation.

The target of one data set is integrin αvβ3 (Homo sapiens, UniProt P05106+P06756). Briefly: integrin αvβ3 binding assay (Pharmacological Example 1 in WO 99/38849). From the text: Whether or not a compound has integrin αvβ3 antagonistic activity may be determined by assaying the antagonistic action by integrin αvβ3 binding assay as described, for example, in Pharmacological Test Example 1 in WO 99/38849.

Data set [1] concerns platelet aggregation. Briefly: inhibition of platelet aggregation, rat. Type of data set: cell-based. The following applies: read-out: concentration (IC50) necessary for inhibition of platelet aggregation.
Data set [2] concerns rat vascular smooth muscle cells. Briefly: adhesion of rat vascular smooth muscle cells to rat vitronectin. The data set is classed as cell-based. The following applies: read-out: concentration (IC50) necessary for inhibition of adhesion to vitronectin. The method, then:
(§1) The adhesion of vascular smooth muscle cells to immobilized human vitronectin was measured in accordance with the method of Liaw et al. (L. Liaw et al., Circ. Res., 74, 214 (1994)). A Dulbecco's phosphate buffer (Dulbecco's PBS(−)) solution of human serum-derived vitronectin adjusted to a concentration of 4 μg/ml was first added to wells (50 μl/well) of a microplate (Maxisorp), and a reaction for immobilization was allowed to proceed at 4° C. overnight. After washing twice with 150 μl of Dulbecco's PBS (−), Dulbecco's PBS (−) containing 10 mg/ml of bovine serum albumin was added, followed by blocking at 37° C. for one hr. The microplate was then washed twice with 150 μl of Dulbecco's PBS (−) to prepare an assay plate.
(§2) Next, 50 μl of a Dulbecco's modified Eagle's basal medium containing 20 mg/ml of bovine serum albumin with a medicament added thereto was added to the wells of the human vitronectin-coated assay microplate, followed by pre-cultivation under 5% carbon dioxide at 37° C. for 10 min. Thereafter, 50 μl of the Dulbecco's modified Eagle's basal medium with human vascular smooth muscle cells suspended therein was added thereto, and the plate was thoroughly stirred. A reaction was allowed to proceed under 5% carbon dioxide at 37° C. for 90 min. The reaction solution containing non-adherent cells was then removed, followed by washing three times with Dulbecco's PBS (−). For the adhered cells, 100 μl of Dulbecco's PBS (−) containing 4% paraformaldehyde was added, and immobilization was allowed to proceed at room temperature for 10 min. Next, 100 μl of a Dulbecco's PBS (−) containing 0.5% Toluidine Blue and 4% paraformaldehyde was added, and staining was allowed to proceed at room temperature for 5 min, followed by thorough washing with distilled water. The inside of the wells was then air-dried, and 1% aqueous sodium dodecylsulfate solution was then added to perform cytolysis. The absorbance of the microplate thus obtained was measured at 595 nm. […] The inhibition was calculated by the following equation. IC50 was determined from a primary regression line of the logarithm of each concentration of the test compound and the logarithm of (100−inhibition)/inhibition. [formula]
(§3) Rat vascular smooth muscle cells were cultivated in a medium composed of a mixture of equal amounts of 15% fetal calf serum-containing 199 medium and RPMI 1640 medium. Separately, hamster and dog vascular smooth muscle cells were cultivated in a 10% fetal calf serum-containing Dulbecco's modified Eagle's basal medium. These cultivated cells were then suspended in a Dulbecco's modified Eagle's basal medium to concentrations of 3×10^5 cells/ml (rat), 3×10^5 cells/ml (hamster), and 4×10^5 cells /ml (dog), respectively. Rat vitronectin was used in the adhesion system of rats and hamsters, while bovine vitronectin was used in the adhesion system of dogs.

For data set [3], the system named is human vascular smooth muscle cells. Briefly: adhesion of human vascular smooth muscle cells to immobilized human vitronectin. Type of data set: cell-based. The following applies: read-out: concentration (IC50) necessary for inhibition of adhesion to vitronectin. On the procedure: as §1
Separately, human vascular smooth muscle cells cultivated at 37° C. under 5% carbon dioxide in a medium for vascular smooth muscle cells were separated using a Dulbecco's PBS (−) containing trypsin-EDTA, were washed with Dulbecco's PBS (−), and were then suspended in a Dulbecco's modified Eagle's basal medium to a concentration of 2×10^5/ml.
as §2

Data set [4] has as its system platelet aggregation. Briefly: inhibition of platelet aggregation, human. The data set is classed as cell-based. The following applies: read-out: concentration (IC50) necessary for inhibition of platelet aggregation.
Data set [5] relates to rat acute myocardial ischemia-reperfusion model. Description: rat acute myocardial ischemia-reperfusion model. Type of data set: in vivo. The following applies: for myocardial infarct size (proportion of the infarct area in the left ventricle): average value±SE; for influence on the blood pressure and the heart rate: doses at which the infarct inhibition action could be obtained. On the procedure:
Male Wistar rats (330 to 420 g) were subjected to controlled respiration using an artificial respirator under pentobarbital anesthesia (60 mg/kg, i.p.), and the blood pressure and the heart rate were measured through a blood pressure amplifier and a heart rate unit. Further, for the ischemia of the myocardium, an increase in voltage of R-wave in the II leading in an electrocardiogram was confirmed with a monitor through a bioelectricity amplifier. The rats underwent thoracotomy, and the coronary artery, together with the myocardium, was then occluded using a suture with a needle. Ischemia for 3 min and reperfusion for 5 min were followed by ischemia for 45 min and reperfusion for 45 min. Medicaments tested and concentrations thereof were 3 mg/kg+3 mg/kg/hr (bolus +infusion) (L; low dose group) and 6 mg/kg+3 mg/kg/hr (bolus +infusion) (H; high dose group) for the compound represented by formula (V); 3 mg/kg+3 mg/kg/hr (bolus +infusion) for the compound represented by formula (VI); 3 mg/kg+3 mg/kg/hr (bolus +infusion) (L; low dose group) and 6 mg/kg+3 mg/kg/hr (bolus +infusion) (H; high dose group) for the compound represented by formula (IV); 5 mg/kg+5 mg/kg/hr(bolus +infusion)(L; low dose group) and 10 mg/kg+10 mg/kg/hr (bolus +infusion) (H; high dose group) for the compound represented by formula (VII); and 1 mg/kg+1 mg/kg/hr (bolus+infusion) (L; low dose group) and 6 mg/kg+6 mg/kg/hr (bolus+infusion) (H; high dose group) for the compound represented by formula (VIII). For a control group (group C), a 10% (v/v) dimethyl sulfoxide/5% glucose solution was administered, and each medicament was dissolved in the same solvent. The dose volume was 3 ml/kg+3 ml/kg/h (bolus+infusion). The medicament was continuously administered through an infusion pump for the period starting with one min before the ischemia and ending with the completion of the experiment. After reperfusion for 45 min, the rats were slaughtered by excessive administration of pentobarbital, and the heart was removed. After perfusion with a Ringer solution, perfusion staining was carried out with 1.5% triphenyltetrazolium chloride, and the proportion of the infarct area in the left ventricle was quantitatively determined. For animals used in the experiment, each group consisted of 5 rats.

The test system of data set [6] is platelet aggregation. Briefly: inhibition of platelet aggregation, dog. The data set is classed as cell-based. The following applies: Canis lupus familiaris, read-out: concentration (IC50) necessary for inhibition of platelet aggregation.
Data set [7] has as its system dog vascular smooth muscle cells. Description: adhesion of dog vascular smooth muscle cells to bovine vitronectin. The following applies: Canis lupus familiaris, read-out: concentration (IC50) necessary for inhibition of adhesion to vitronectin. The data set is classed as cell-based. The method, then:
as §1, §2, §3

Where [8] appears, read: 3 mg/kg+3 mg/kg/hr (bolus+infusion).
Setting [9] is: 3 mg/kg+3 mg/kg/hr (bolus+infusion), n=5.

integrin αvβ3, sequence (P06756 31-1048): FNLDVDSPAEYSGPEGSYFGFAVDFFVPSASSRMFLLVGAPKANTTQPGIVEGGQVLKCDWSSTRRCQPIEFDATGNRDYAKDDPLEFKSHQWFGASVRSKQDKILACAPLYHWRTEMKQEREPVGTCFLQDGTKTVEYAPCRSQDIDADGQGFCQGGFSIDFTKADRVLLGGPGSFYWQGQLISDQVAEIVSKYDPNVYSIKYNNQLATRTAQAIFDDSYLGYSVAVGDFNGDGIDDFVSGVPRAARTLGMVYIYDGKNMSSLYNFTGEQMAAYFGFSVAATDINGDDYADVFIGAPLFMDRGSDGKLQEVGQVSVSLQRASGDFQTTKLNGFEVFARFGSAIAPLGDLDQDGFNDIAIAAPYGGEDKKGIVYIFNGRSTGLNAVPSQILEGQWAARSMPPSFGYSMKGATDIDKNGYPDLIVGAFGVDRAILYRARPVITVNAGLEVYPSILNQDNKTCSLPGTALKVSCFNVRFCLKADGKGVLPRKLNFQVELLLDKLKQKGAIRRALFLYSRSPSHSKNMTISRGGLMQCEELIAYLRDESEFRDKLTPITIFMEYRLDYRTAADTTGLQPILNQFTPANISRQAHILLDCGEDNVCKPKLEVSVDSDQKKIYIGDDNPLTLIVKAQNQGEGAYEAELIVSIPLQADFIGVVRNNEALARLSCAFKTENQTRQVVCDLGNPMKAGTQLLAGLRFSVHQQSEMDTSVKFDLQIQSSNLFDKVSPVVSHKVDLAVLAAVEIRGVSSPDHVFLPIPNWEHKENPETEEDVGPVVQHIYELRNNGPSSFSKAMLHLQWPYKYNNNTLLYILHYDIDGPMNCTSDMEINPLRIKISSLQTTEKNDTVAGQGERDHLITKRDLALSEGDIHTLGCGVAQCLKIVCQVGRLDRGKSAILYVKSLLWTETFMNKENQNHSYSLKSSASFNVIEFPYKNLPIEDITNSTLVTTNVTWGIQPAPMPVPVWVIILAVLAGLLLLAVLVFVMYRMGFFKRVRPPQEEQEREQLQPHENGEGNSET
integrin αvβ3, sequence (P05106 27-788): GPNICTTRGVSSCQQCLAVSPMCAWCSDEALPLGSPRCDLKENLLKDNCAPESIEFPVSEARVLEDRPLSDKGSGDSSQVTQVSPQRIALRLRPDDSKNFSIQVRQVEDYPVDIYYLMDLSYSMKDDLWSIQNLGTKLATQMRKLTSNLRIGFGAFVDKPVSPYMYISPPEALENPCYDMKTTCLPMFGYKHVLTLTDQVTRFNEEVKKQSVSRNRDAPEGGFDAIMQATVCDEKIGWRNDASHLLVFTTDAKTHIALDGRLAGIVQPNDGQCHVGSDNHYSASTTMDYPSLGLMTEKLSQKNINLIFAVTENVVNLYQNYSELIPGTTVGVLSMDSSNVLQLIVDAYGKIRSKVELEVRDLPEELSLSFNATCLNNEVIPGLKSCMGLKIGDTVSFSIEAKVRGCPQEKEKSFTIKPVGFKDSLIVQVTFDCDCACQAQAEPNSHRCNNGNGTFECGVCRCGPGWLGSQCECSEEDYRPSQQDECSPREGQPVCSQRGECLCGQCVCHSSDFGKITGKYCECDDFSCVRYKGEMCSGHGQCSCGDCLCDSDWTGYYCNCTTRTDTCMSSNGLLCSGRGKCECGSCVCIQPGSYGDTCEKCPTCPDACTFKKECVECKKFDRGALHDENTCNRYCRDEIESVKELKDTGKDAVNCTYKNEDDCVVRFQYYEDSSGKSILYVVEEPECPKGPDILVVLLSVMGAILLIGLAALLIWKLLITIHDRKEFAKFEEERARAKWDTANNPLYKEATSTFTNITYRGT

In the case of `O=C(NCC(NS(=O)(=O)c1ccccc1)C(=O)O)c1ccc(N2CCC(NC3=NCCCN3)CC2)cc1` (stereo in doubt) [formula (V), (2S)-Benzenesulfonylamino-3-[4-{4-(1,4,5,6-tetrahydropyrimidin-2-ylamino)piperidin-1-yl}-benzoylamino]propionic Acid], the IC50 at integrin αvβ3 was 1.2 nM; in the data set with platelet aggregation [1], 13 µM; in data set [2], 800 nM; in data set [3], 190 nM; in the data set on platelet aggregation [4], 63 nM. Further, the “reduction of myocardial infarct size as compared with group C” value (“reduction of myocardial infarct size” for short) in data set [5] (setting [8]) came out at 16.1%; in data set [5] (6 mg/kg+3 mg/kg/hr (bolus+infusion), group H), 35.5%. Further, the “myocardial infarct size (proportion of the infarct area in the left ventricle)” value was 39.0±1.7% in data set [5] (setting [9]) and 30.0±1.6% in data set [5] (6 mg/kg+3 mg/kg/hr (bolus+infusion), group H, n=5). Moreover, in data set [5], the “influence on the blood pressure and the heart rate” value (“influence” for short) is reported as “no influence”.
As to `O=C(NCC(NS(=O)(=O)c1ccccc1)C(=O)O)c1ccc(OCCNC2=NCCCN2)cc1` (stereo in doubt) [formula (VI), 4-[2-(3,4,5,6-Tetrahydropyrimidin-2-ylamino)ethyloxy]benzoyl-2(S)-phenylsulfonylamino-β-alanine], the IC50 is 0.39 nM on integrin αvβ3; greater than 100 µM in the data set with platelet aggregation [1]; 450 nM in data set [2]; 72 nM in data set [3]; 180 nM with platelet aggregation [4]. Besides, the “reduction of myocardial infarct size” value in data set [5] (setting [8]) is listed as 34.8%. For the same compound, the “myocardial infarct size (proportion of the infarct area in the left ventricle)” value in data set [5] (setting [9]) is 30.3±6.1%. Moreover, in data set [5], the “influence” value was “no influence”.
As to `COc1cc(C(=O)NCC(NS(=O)(=O)c2ccccc2)C(=O)O)ccc1N1CCC(NC2=NCCCN2)CC1` (stereo in doubt) [formula (VIII), (2S)-Benzenesulfonylamino-3-[3-methoxy-4-{4-(1,4,5,6-tetrahydropyrimidin-2-ylamino)-piperidin-1-yl}benzoylamino]propionic Acid], the IC50 came out at 56 nM in the data set on platelet aggregation [6]; 0.14 nM at integrin αvβ3; 760 nM in data set [2]; 28 nM in data set [7]; 130 nM in data set [3]; 130 nM with platelet aggregation [4]. Besides, the “reduction of myocardial infarct size” value in data set [5] (1 mg/kg+1 mg/kg/hr (bolus+infusion), group L) worked out at 24.2%; in data set [5] (6 mg/kg+6 mg/kg/hr (bolus+infusion), group H) it was 32.5%. In addition, the “myocardial infarct size (proportion of the infarct area in the left ventricle)” value in data set [5] (1 mg/kg+1 mg/kg/hr (bolus+infusion), group L, n=5, group C 36.0±1.9%) worked out at 27.3±5.2%; in data set [5] (6 mg/kg+6 mg/kg/hr (bolus+infusion), group H, n=5, group C 36.0±1.9%) it was 24.3±3.8%. In addition, in data set [5], the “influence” value is reported as “no influence”.
Consider `O=C(NC[C@@H](NS(=O)(=O)c1ccccc1)C(=O)O)c1ccc(N2CCCC(NC3=NCCCN3)C2)cc1` (stereo partly drawn) [formula (IX), (2S)-Benzenesulfonylamino-3-[4-{(3S)-(1,4,5,6-tetrahydropyrimidin-2-ylamino)piperidin-1-yl}benzoylamino]propionic Acid], for which the IC50 in the data set on platelet aggregation [6] is 59 nM; at integrin αvβ3 it was 0.53 nM; in data set [2] it was 96 nM; in data set [7] it was 11 nM; in data set [3] it was 28 nM; in the data set on platelet aggregation [4], 56 nM.
With `O=C(NC[C@H](NS(=O)(=O)c1ccc(O)cc1)C(=O)O)c1ccc(N2CCC(NC3=NCCCN3)CC2)c(F)c1` [formula (VII), 3-[3-Fluoro-4-{4-(1,4,5,6-tetrahydropyrimidin-2-ylamino)piperidin-1-yl}benzoylamino]-(2S)-{(4-hydroxybenzenesulfonyl)amino}propionic Acid], the IC50 in the data set on platelet aggregation [6] was 190 nM; on integrin αvβ3, 0.066 nM; in the data set on platelet aggregation [1], greater than 100 µM; in data set [2], 640 nM; in data set [7], 18 nM; in data set [3], 69 nM. The IC50 with platelet aggregation [4] stood at 230 nM. For the same compound, the “reduction of myocardial infarct size” value in data set [5] (5 mg/kg+5 mg/kg/hr (bolus+infusion), group L) worked out at 24.5%; in data set [5] (10 mg/kg+10 mg/kg/hr (bolus+infusion), group H) it was 41.5%. For the same compound, the “myocardial infarct size (proportion of the infarct area in the left ventricle)” value is reported as 29.3±1.7% in data set [5] (5 mg/kg+5 mg/kg/hr (bolus+infusion), group L, n=5, group C 38.8±[…]) and 22.7±3.8% in data set [5] (10 mg/kg+10 mg/kg/hr (bolus+infusion), group H, n=5, group C 38.8±[…]). Besides, in data set [5], the “influence” value is “no influence”.
Consider `O=C(NC[C@@H](NS(=O)(=O)c1ccccc1)C(=O)O)c1ccc(N2CCCC(NC3=NCCCN3)C2)cc1F` (stereo partly drawn) [formula (X), (2S)-Benzenesulfonylamino-3-[2-fluoro-4-{(3S)-(1,4,5,6-tetrahydropyrimidin-2-ylamino)-piperidin-1-yl}benzoylamino]propionic Acid], for which the IC50 in the data set with platelet aggregation [6] turned out to be 110 nM; at integrin αvβ3 it was 0.16 nM; in data set [2], 96 nM; in data set [7] it was 9.7 nM; in data set [3], 13 nM; in the data set with platelet aggregation [4], 410 nM.
For `O=C(NC[C@@H](NS(=O)(=O)c1cccs1)C(=O)O)c1ccc(N2CCCC(NC3=NCCCN3)C2)cc1` (stereo partly drawn) [formula (XI), 3-[4-{(3S)-(1,4,5,6-Tetrahydropyrimidin-2-ylamino)piperidin-1-yl}benzoylamino]-(2S)-{(thiophene-2-sulfonyl)amino}propionic Acid], the results for the IC50 (on integrin αvβ3; in data set [3]; with platelet aggregation [4]) were 0.14 nM, 24 nM and 95 nM, respectively.
